Data on 8 cell lines can be found in the supplement of paper PMC10307832.

What all share (assay): relative viability (nuclei count vs DMSO), 5 days (fraction); higher = more cells survive
Compound in the assay “Carfilzomib + Trametinib”: CC(C)C[C@H](NC(=O)[C@H](CCc1ccccc1)NC(=O)CN1CCOCC1)C(=O)N[C@@H](Cc1ccccc1)C(=O)N[C@@H](CC(C)C)C(=O)[C@@]1(C)CO1 [Carfilzomib] + CC(=O)Nc1cccc(-n2c(=O)n(C3CC3)c(=O)c3c(Nc4ccc(I)cc4F)n(C)c(=O)c(C)c32)c1 [Trametinib] (partner 0.02 µM)
Summed up:
(§1)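 Lung cancer cell lines in 1536-well plates were dosed by pin tool the day after seeding, either with one drug alone or with a fixed anchor-drug dose plus five library-drug doses (not always all listed) in √10 steps. After 5 days, cells were fixed and their nuclei stained in one step (final 0.05% Triton X-100, 1% formaldehyde, 1 ug/ml Hoechst), then counted on 4× images. Relative viability is the nuclei count in treated wells divided by that in vehicle wells. Values are medians of duplicate plates.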

Compound in the assay “Carfilzomib + Vorinostat”: CC(C)C[C@H](NC(=O)[C@H](CCc1ccccc1)NC(=O)CN1CCOCC1)C(=O)N[C@@H](Cc1ccccc1)C(=O)N[C@@H](CC(C)C)C(=O)[C@@]1(C)CO1 [Carfilzomib] + O=C(CCCCCCC(=O)Nc1ccccc1)NO [Vorinostat] (partner 1 µM)
Summed up: as §1

Compound in the assay “Crizotinib + Tozasertib”: C[C@@H](Oc1cc(-c2cnn(C3CCNCC3)c2)cnc1N)c1c(Cl)ccc(F)c1Cl [Crizotinib] + Cc1cc(Nc2cc(N3CCN(C)CC3)nc(Sc3ccc(NC(=O)C4CC4)cc3)n2)n[nH]1 [Tozasertib] (partner 0.1 µM)
Summed up: as §1

Compound in the assay “Olaparib + Phenformin”: O=C(c1cc(Cc2n[nH]c(=O)c3ccccc23)ccc1F)N1CCN(C(=O)C2CC2)CC1 [Olaparib] + N=C(N)NC(=N)NCCc1ccccc1 [Phenformin] (partner 250 µM)
Summed up:
as §1

COR-L23: the relative viability with Carfilzomib + Trametinib (first compound 0.001 µM) stood at 0.565; in the assay with Carfilzomib + Trametinib (first compound 0.003162 µM), 0.739; with Carfilzomib + Trametinib (first compound 0.01 µM), 0.577; in the assay with Carfilzomib + Trametinib (first compound 0.03162 µM) it was 0.0935; in the assay with Carfilzomib + Trametinib (first compound 0.1 µM) it was 0.0822; in the assay with Carfilzomib + Vorinostat (first compound 0.001 µM) it was 0.454. In addition, the relative viability in the assay with Carfilzomib + Vorinostat (first compound 0.003162 µM) was determined as 0.438; in the assay with Carfilzomib + Vorinostat (first compound 0.01 µM) it was 0.212; in the assay with Carfilzomib + Vorinostat (first compound 0.03162 µM), 0.0648; with Carfilzomib + Vorinostat (first compound 0.1 µM), 0.0718; in the assay with Crizotinib + Tozasertib (first compound 0.01 µM), 0.21; with Crizotinib + Tozasertib (first compound 0.03162 µM) it was 0.191. Besides, the relative viability with Crizotinib + Tozasertib (first compound 0.1 µM) came out at 0.22; with Crizotinib + Tozasertib (first compound 0.3162 µM) it was 0.195; in the assay with Crizotinib + Tozasertib (first compound 1 µM), 0.194; in the assay with Olaparib + Phenformin (first compound 0.08 µM) it was 0.492; in the assay with Olaparib + Phenformin (first compound 0.253 µM) it was 0.383; in the assay with Olaparib + Phenformin (first compound 2.53 µM) it was 0.408. The relative viability with Olaparib + Phenformin (first compound 8 µM) worked out at 0.294.
Take NCI-H322M: the relative viability with Carfilzomib + Trametinib (first compound 0.001 µM) came to 0.505; with Carfilzomib + Trametinib (first compound 0.003162 µM), 0.49; with Carfilzomib + Trametinib (first compound 0.01 µM), 0.487; in the assay with Carfilzomib + Trametinib (first compound 0.03162 µM), 0.507; with Carfilzomib + Trametinib (first compound 0.1 µM) it was 0.364; with Carfilzomib + Vorinostat (first compound 0.001 µM), 0.796. Besides, the relative viability with Carfilzomib + Vorinostat (first compound 0.003162 µM) stood at 0.898; with Carfilzomib + Vorinostat (first compound 0.01 µM) it was 0.952; in the assay with Carfilzomib + Vorinostat (first compound 0.03162 µM), 0.788; in the assay with Carfilzomib + Vorinostat (first compound 0.1 µM), 0.38; with Crizotinib + Tozasertib (first compound 0.01 µM) it was 0.482; in the assay with Crizotinib + Tozasertib (first compound 0.03162 µM), 0.515. For the same cell line, the relative viability amounted to 0.48 with Crizotinib + Tozasertib (first compound 0.1 µM); 0.49 with Crizotinib + Tozasertib (first compound 0.3162 µM); 0.459 in the assay with Crizotinib + Tozasertib (first compound 1 µM); 0.937 in the assay with Olaparib + Phenformin (first compound 0.08 µM); 0.815 with Olaparib + Phenformin (first compound 0.253 µM); 0.81 with Olaparib + Phenformin (first compound 2.53 µM). In addition, in the assay with Olaparib + Phenformin (first compound 8 µM), the relative viability was determined as 0.635.
Take NCI-H2085: the relative viability with Carfilzomib + Trametinib (first compound 0.001 µM) was found to be 0.498; with Carfilzomib + Trametinib (first compound 0.003162 µM), 0.503; with Carfilzomib + Trametinib (first compound 0.01 µM) it was 0.478; in the assay with Carfilzomib + Trametinib (first compound 0.03162 µM), 0.35; in the assay with Carfilzomib + Trametinib (first compound 0.1 µM), 0.223; with Carfilzomib + Vorinostat (first compound 0.001 µM), 0.71. Moreover, the relative viability was determined as 0.879 with Carfilzomib + Vorinostat (first compound 0.003162 µM); 0.497 with Carfilzomib + Vorinostat (first compound 0.01 µM); 0.222 with Carfilzomib + Vorinostat (first compound 0.03162 µM); 0.3 with Carfilzomib + Vorinostat (first compound 0.1 µM); 0.763 with Crizotinib + Tozasertib (first compound 0.01 µM); 0.801 with Crizotinib + Tozasertib (first compound 0.03162 µM). Moreover, the relative viability worked out at 0.775 in the assay with Crizotinib + Tozasertib (first compound 0.1 µM); 0.884 in the assay with Crizotinib + Tozasertib (first compound 1 µM); 0.837 in the assay with Olaparib + Phenformin (first compound 0.08 µM); 0.69 in the assay with Olaparib + Phenformin (first compound 0.253 µM); 0.682 with Olaparib + Phenformin (first compound 2.53 µM); 0.625 with Olaparib + Phenformin (first compound 8 µM).
On to NCI-H2023, for which the relative viability was found to be 0.486 with Carfilzomib + Trametinib (first compound 0.001 µM); 0.614 in the assay with Carfilzomib + Trametinib (first compound 0.003162 µM); 0.669 with Carfilzomib + Trametinib (first compound 0.01 µM); 0.269 with Carfilzomib + Trametinib (first compound 0.03162 µM); 0.0795 in the assay with Carfilzomib + Trametinib (first compound 0.1 µM); 0.471 in the assay with Carfilzomib + Vorinostat (first compound 0.001 µM). The relative viability is 0.657 in the assay with Carfilzomib + Vorinostat (first compound 0.003162 µM); 0.619 with Carfilzomib + Vorinostat (first compound 0.01 µM); 0.224 with Carfilzomib + Vorinostat (first compound 0.03162 µM); 0.0546 with Carfilzomib + Vorinostat (first compound 0.1 µM); 0.356 with Crizotinib + Tozasertib (first compound 0.01 µM); 0.284 in the assay with Crizotinib + Tozasertib (first compound 0.03162 µM). For the same cell line, the relative viability with Crizotinib + Tozasertib (first compound 0.1 µM) was 0.293; in the assay with Crizotinib + Tozasertib (first compound 0.3162 µM), 0.241; in the assay with Crizotinib + Tozasertib (first compound 1 µM), 0.271; with Olaparib + Phenformin (first compound 0.08 µM), 0.466; with Olaparib + Phenformin (first compound 0.253 µM) it was 0.36; with Olaparib + Phenformin (first compound 2.53 µM), 0.391. For the same cell line, the relative viability with Olaparib + Phenformin (first compound 8 µM) came to 0.359.
Take LU99A: the relative viability in the assay with Carfilzomib + Trametinib (first compound 0.001 µM) stood at 0.525; with Carfilzomib + Trametinib (first compound 0.003162 µM), 0.588; with Carfilzomib + Trametinib (first compound 0.01 µM), 0.541; with Carfilzomib + Trametinib (first compound 0.03162 µM), 0.417; with Carfilzomib + Trametinib (first compound 0.1 µM), 0.284; with Carfilzomib + Vorinostat (first compound 0.001 µM), 0.467. Moreover, the relative viability was determined as 0.649 with Carfilzomib + Vorinostat (first compound 0.003162 µM); 0.404 with Carfilzomib + Vorinostat (first compound 0.01 µM); 0.225 with Carfilzomib + Vorinostat (first compound 0.03162 µM); 0.167 in the assay with Carfilzomib + Vorinostat (first compound 0.1 µM); 0.231 in the assay with Crizotinib + Tozasertib (first compound 0.01 µM); 0.27 with Crizotinib + Tozasertib (first compound 0.03162 µM). The relative viability in the assay with Crizotinib + Tozasertib (first compound 0.1 µM) was found to be 0.256; in the assay with Crizotinib + Tozasertib (first compound 0.3162 µM), 0.222; with Crizotinib + Tozasertib (first compound 1 µM) it was 0.241; with Olaparib + Phenformin (first compound 0.08 µM), 0.853; with Olaparib + Phenformin (first compound 0.253 µM), 0.777; in the assay with Olaparib + Phenformin (first compound 2.53 µM), 0.666. Besides, in the assay with Olaparib + Phenformin (first compound 8 µM), the relative viability was 0.556.
In the case of NCI-H2228, the relative viability in the assay with Carfilzomib + Trametinib (first compound 0.001 µM) is 0.235; in the assay with Carfilzomib + Trametinib (first compound 0.003162 µM), 0.584; in the assay with Carfilzomib + Trametinib (first compound 0.01 µM), 0.697; with Carfilzomib + Trametinib (first compound 0.03162 µM) it was 0.103; with Carfilzomib + Trametinib (first compound 0.1 µM) it was 0.109; with Carfilzomib + Vorinostat (first compound 0.001 µM), 0.728. Further, the relative viability with Carfilzomib + Vorinostat (first compound 0.003162 µM) came out at 0.657; in the assay with Carfilzomib + Vorinostat (first compound 0.01 µM), 0.468; with Carfilzomib + Vorinostat (first compound 0.03162 µM), 0.101; in the assay with Carfilzomib + Vorinostat (first compound 0.1 µM) it was 0.0952; with Crizotinib + Tozasertib (first compound 0.01 µM), 0.237; with Crizotinib + Tozasertib (first compound 0.03162 µM) it was 0.229. Further, the relative viability was found to be 0.172 with Crizotinib + Tozasertib (first compound 0.1 µM); 0.209 with Crizotinib + Tozasertib (first compound 0.3162 µM); 0.182 in the assay with Crizotinib + Tozasertib (first compound 1 µM); 0.333 in the assay with Olaparib + Phenformin (first compound 0.08 µM); 0.276 with Olaparib + Phenformin (first compound 0.253 µM); 0.287 with Olaparib + Phenformin (first compound 2.53 µM). The relative viability with Olaparib + Phenformin (first compound 8 µM) stood at 0.345.
Turning to NCI-H1395, the relative viability in the assay with Carfilzomib + Trametinib (first compound 0.003162 µM) amounted to 0.997; with Carfilzomib + Trametinib (first compound 0.01 µM), 1.11; with Carfilzomib + Trametinib (first compound 0.03162 µM), 0.566; in the assay with Carfilzomib + Trametinib (first compound 0.1 µM), 0.344; with Carfilzomib + Vorinostat (first compound 0.003162 µM), 0.791; with Carfilzomib + Vorinostat (first compound 0.01 µM), 0.469. For the same cell line, the relative viability with Carfilzomib + Vorinostat (first compound 0.03162 µM) came to 0.306; in the assay with Carfilzomib + Vorinostat (first compound 0.1 µM), 0.316; with Crizotinib + Tozasertib (first compound 0.01 µM), 0.67; with Crizotinib + Tozasertib (first compound 0.03162 µM) it was 0.734; in the assay with Crizotinib + Tozasertib (first compound 0.1 µM), 0.764; with Crizotinib + Tozasertib (first compound 0.3162 µM), 0.738. In addition, the relative viability is 0.74 in the assay with Crizotinib + Tozasertib (first compound 1 µM); 0.419 with Olaparib + Phenformin (first compound 0.08 µM); 0.4 with Olaparib + Phenformin (first compound 0.253 µM); 0.423 with Olaparib + Phenformin (first compound 2.53 µM); 0.396 with Olaparib + Phenformin (first compound 8 µM).
Take HCC-15: the relative viability with Carfilzomib + Trametinib (first compound 0.001 µM) came to 0.367; with Carfilzomib + Trametinib (first compound 0.003162 µM), 0.426; with Carfilzomib + Trametinib (first compound 0.01 µM), 0.432; with Carfilzomib + Trametinib (first compound 0.03162 µM), 0.372; with Carfilzomib + Trametinib (first compound 0.1 µM), 0.17; with Carfilzomib + Vorinostat (first compound 0.001 µM) it was 0.927. Further, the relative viability with Carfilzomib + Vorinostat (first compound 0.003162 µM) turned out to be 0.821; with Carfilzomib + Vorinostat (first compound 0.01 µM) it was 0.951; with Carfilzomib + Vorinostat (first compound 0.03162 µM) it was 0.506; in the assay with Carfilzomib + Vorinostat (first compound 0.1 µM) it was 0.132; in the assay with Crizotinib + Tozasertib (first compound 0.01 µM) it was 0.408; with Crizotinib + Tozasertib (first compound 0.03162 µM) it was 0.377. Moreover, the relative viability with Crizotinib + Tozasertib (first compound 0.1 µM) was found to be 0.389; with Crizotinib + Tozasertib (first compound 1 µM), 0.339; in the assay with Olaparib + Phenformin (first compound 0.08 µM), 0.599; in the assay with Olaparib + Phenformin (first compound 0.253 µM) it was 0.423; with Olaparib + Phenformin (first compound 2.53 µM), 0.445; with Olaparib + Phenformin (first compound 8 µM), 0.409.
